Earlier results, collected in patent US6171786A, “Methods for preventing multidrug resistance in cancer cells” (priority 1996, dated 2001).

Tests used:
[1] = clinical trials; Berdel et al., 1988; cited from earlier work
[2] = tested on: hormone-refractory prostate cancer; settings: continuous infusion, peak of 300 μg/mL at end of 14 days; cited from earlier work

SMILES	MTD, oral administration [1]	activity in hormone-refractory prostate cancer [2]
CCCCCCCCCCCCCCCCSCC(COC)COP(=O)([O-])OCC[N+](C)(C)C (centres unmarked) [ilmofosine]	200 mg/day	
Cc1ccc(C(=O)Nc2ccc(S(=O)(=O)O)c3cc(S(=O)(=O)O)cc(S(=O)(=O)O)c23)cc1NC(=O)c1cccc(NC(=O)Nc2cccc(C(=O)Nc3cc(C(=O)Nc4ccc(S(=O)(=O)O)c5cc(S(=O)(=O)O)cc(S(=O)(=O)O)c45)ccc3C)c2)c1 [suramin]		has shown activity in hormone-refractory prostate cancer
